Assay results: patent US12655116B2, “Substituted isophthalic acid diamides” (Bayer Aktiengesellschaft, priority 2020, dated 2026)

Assays:
ABUTH [1] = experiment: Pre-emergence herbicidal action against ABUTH; format: in vivo, Abutilon theophrasti
Method in brief: (§1)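 Herbicidal effect was assessed 3 weeks after treatment by visual comparison with untreated controls, 100% denoting dead plants. Aqueous WP or EC preparations had been applied at 600 to 800 l/ha with 0.2% wetting agent to the soil covering freshly sown seeds.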

ALOMY [2] = experiment: Pre-emergence herbicidal action against ALOMY; format: in vivo, Alopecurus myosuroides
Method in brief: as §1

AMARE [3] = experiment: Pre-emergence herbicidal action against AMARE; format: in vivo, Amaranthus retroflexus
Method in brief: as §1

AVEFA = experiment: Pre-emergence herbicidal action against AVEFA; format: in vivo, Avena fatua
Method in brief: as §1

ECHCG [4] = experiment: Pre-emergence herbicidal action against ECHCG; format: in vivo, Echinochloa crus-galli; conditions: 80 g/ha
Method in brief: as §1

LOLRI = experiment: Pre-emergence herbicidal action against LOLRI; format: in vivo, Lolium rigidum; conditions: 80 g/ha
Method in brief: as §1

MATIN [5] = experiment: Pre-emergence herbicidal action against MATIN; format: in vivo, Matricaria inodora
Method in brief: as §1

PHBPU [6] = experiment: Pre-emergence herbicidal action against PHBPU; format: in vivo, Pharbitis purpurea
Method in brief: as §1

POLCO = experiment: Pre-emergence herbicidal action against POLCO; format: in vivo, Polygonum convolvulus
Method in brief: as §1

SETVI [7] = experiment: Pre-emergence herbicidal action against SETVI; format: in vivo, Setaria viridis
Method in brief: as §1

VERPE [8] = experiment: Pre-emergence herbicidal action against VERPE; format: in vivo, Veronica persica; conditions: dosage 80 g/ha
Method in brief: as §1

VIOTR [9] = experiment: Pre-emergence herbicidal action against VIOTR; format: in vivo, Viola tricolor
Method in brief: as §1

ABUTH [10] = experiment: Post-emergence herbicidal action against ABUTH; format: in vivo, Abutilon theophrasti; conditions: visual assessment about 3 weeks after treatment vs untreated controls
Method in brief: (§2)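 Herbicidal effect was scored visually in percent after about 3 weeks in the greenhouse. Plants had been raised in sandy loam and treated post-emergence at the one-leaf stage with formulated compound at 600 to 800 l/ha water plus 0.2% wetting agent.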

ALOMY [11] = experiment: Post-emergence herbicidal action against ALOMY; format: in vivo, Alopecurus myosuroides; conditions: dosage 20 g/ha, visual assessment about 3 weeks after treatment vs untreated controls
Method in brief: as §2

AMARE [12] = experiment: Post-emergence herbicidal action against AMARE; format: in vivo, Amaranthus retroflexus; conditions: 20 g/ha, visual assessment about 3 weeks after treatment, 100% = plants have died, 0% = like control plants
Method in brief: as §2

ECHCG [13] = experiment: Post-emergence herbicidal action against ECHCG; format: in vivo, Echinochloa crus-galli; conditions: dosage 20 g/ha
Method in brief: as §2

MATIN [14] = experiment: Post-emergence herbicidal action against MATIN; format: in vivo, Matricaria inodora; conditions: dosage 20 g/ha
Method in brief: as §2

PHBPU [15] = experiment: Post-emergence herbicidal action against PHBPU; format: in vivo, Pharbitis purpurea
Method in brief: as §2

SETVI [16] = experiment: Post-emergence herbicidal action against SETVI; format: in vivo, Setaria viridis; conditions: dosage 20 g/ha
Method in brief: as §2

VIOTR [17] = experiment: Post-emergence herbicidal action against VIOTR; format: in vivo, Viola tricolor
Method in brief: as §2

DIGSA [18] = experiment: Pre-emergence herbicidal action against DIGSA; format: in vivo, Digitaria sanguinalis; conditions: Digitaria sanguinalis, 504 h
Method in brief: as §1

VERPE [19] = experiment: Post-emergence herbicidal action against VERPE; format: in vivo, Veronica persica; conditions: Veronica persica, 504 h, 20 g/ha
Method in brief: as §2

DIGSA [20] = experiment: Post-emergence herbicidal action against DIGSA; format: in vivo, Digitaria sanguinalis; conditions: Digitaria sanguinalis, 504 h
Method in brief: as §2

[21] = 80 g/ha, scored visually after 3 weeks vs untreated controls (100% = plants have died, 0% = like control plants)
[22] = 20 g/ha, scored visually after 3 weeks, 100% = plants have died, 0% = like control plants

In the case of `CCc1c(C(=O)Nc2nnnn2CC)ccc(C(F)(F)F)c1C(=O)NCC(F)F` [Example 2-276], the “Pre-emergence action against ABUTH (herbicidal activity)” value (ABUTH [1]; [21]) was 100%, the “Pre-emergence action against ABUTH (herbicidal activity in percent)” value (ABUTH [1]; dosage 20 g/ha, scored visually after 3 weeks vs untreated controls, 100% = plants have died, 0% = like control plants) was 100% and the “Pre-emergence action against ALOMY” value (ALOMY [2]; [22]) was 90%. The “Pre-emergence action against ALOMY (herbicidal activity)” value (ALOMY [2]; 80 g/ha, pre-emergence, scored visually after 3 weeks vs untreated controls (100% = plants have died, 0% = like control plants)) was 90%, the “Pre-emergence action against AMARE in %” value (AMARE [3]; 20 g/ha, scored visually after 3 weeks vs untreated controls, 100% = plants have died, 0% = like control plants) was 100% and the “Pre-emergence action against AMARE in %” value (AMARE [3]; [21]) was 100%. For the same compound, the “Pre-emergence action against AVEFA” value (AVEFA; [22]) was 80%, the “Pre-emergence action against AVEFA in %” value (AVEFA; 80 g/ha, pre-emergence) was 90% and the “Pre-emergence action against ECHCG in %” value (ECHCG [4]) was 80%. The “Pre-emergence action against LOLRI in %” value (LOLRI) was 80%, the “Pre-emergence action against MATIN in %” value (MATIN [5]; dosage 20 g/ha) was 100% and the “Pre-emergence action against MATIN in %” value (MATIN [5]; dosage 80 g/ha) was 100%. The “Pre-emergence action against PHBPU in %” value (PHBPU [6]; dosage 80 g/ha) was 90%, the “Pre-emergence action against POLCO in %” value (POLCO; dosage 80 g/ha) was 90% and the “Pre-emergence action against SETVI in %” value (SETVI [7]; dosage 80 g/ha) was 100%. The “Pre-emergence action against VERPE in %” value (VERPE [8]) was 80%, the “Pre-emergence action against VIOTR in %” value (VIOTR [9]; dosage 20 g/ha) was 100% and the “Pre-emergence action against VIOTR in %” value (VIOTR [9]; dosage 80 g/ha) was 100%. The “Post-emergence action against ABUTH in %” value (ABUTH [10]; dosage 5 g/ha) was 80%, the “Post-emergence action against ABUTH in %” value (ABUTH [10]; dosage 20 g/ha) was 80% and the “Post-emergence action against ALOMY in %” value (ALOMY [11]) was 80%. For the same compound, the “Post-emergence action at 20 g/ha against AMARE in %” value (AMARE [12]) was 90%, the “Post-emergence action against ECHCG in %” value (ECHCG [13]) was 90% and the “Post-emergence action against MATIN in %” value (MATIN [14]) was 90%. For the same compound, the “Post-emergence action against PHBPU in %” value (PHBPU [15]; dosage 5 g/ha) was 80%, the “Post-emergence action against PHBPU in %” value (PHBPU [15]; dosage 20 g/ha) was 90% and the “Post-emergence action against SETVI in %” value (SETVI [16]) was 80%. For the same compound, the “Post-emergence action against VIOTR in %” value (VIOTR [17]; 20 g/ha) was 80%.
With `CCc1c(C(=O)Nc2nnnn2CC)ccc(C(F)F)c1C(=O)NC1CC1` [Example 2-279] the pest or weed control at 80 g/ha (ABUTH [1]; Abutilon theophrasti, 504 h, 80 g/ha, scored visually after 3 weeks vs untreated controls (100% = plants have died, 0% = like control plants)) was 100%, the pest or weed control at 20 g/ha (ABUTH [1]; Abutilon theophrasti, 504 h, dosage 20 g/ha, scored visually after 3 weeks vs untreated controls, 100% = plants have died, 0% = like control plants, read-out: Pre-emergence action against ABUTH (herbicidal activity in percent)) was 80% and the pest or weed control at 80 g/ha (ALOMY [2]; Alopecurus myosuroides, 504 h, 80 g/ha, pre-emergence, scored visually after 3 weeks vs untreated controls (100% = plants have died, 0% = like control plants)) was 90%. For the same compound, the pest or weed control at 20 g/ha (ALOMY [2]; Alopecurus myosuroides, pre-emergence, 504 h, 20 g/ha, scored visually after 3 weeks, 100% = plants have died, 0% = like control plants) was 80%, the pest or weed control at 20 g/ha (AMARE [3]; Amaranthus retroflexus, 504 h, 20 g/ha, scored visually after 3 weeks vs untreated controls, 100% = plants have died, 0% = like control plants) was 100% and the pest or weed control at 80 g/ha (AMARE [3]; Amaranthus retroflexus, 504 h, 80 g/ha, scored visually after 3 weeks vs untreated controls, 100% = plants have died, 0% = like control plants) was 100%. It also gave a pest or weed control at 80 g/ha (AVEFA; Avena fatua, 504 h, 80 g/ha, pre-emergence) of 100%, a pest or weed control at 80 g/ha (ECHCG [4]; Echinochloa crus-galli, 504 h) of 100% and a pest or weed control at 80 g/ha (LOLRI; Lolium rigidum, 504 h) of 80%. For the same compound, the pest or weed control at 20 g/ha (MATIN [5]; Tripleurospermum inodorum, 504 h, dosage 20 g/ha) was 90%, the pest or weed control at 80 g/ha (MATIN [5]; Tripleurospermum inodorum, 504 h, dosage 80 g/ha) was 100% and the pest or weed control at 20 g/ha (PHBPU [6]; Ipomoea purpurea, 504 h, dosage 20 g/ha) was 80%. For the same compound, the pest or weed control at 80 g/ha (PHBPU [6]; Ipomoea purpurea, 504 h, dosage 80 g/ha) was 90%, the pest or weed control at 20 g/ha (POLCO; Fallopia convolvulus, 504 h, dosage 20 g/ha) was 80% and the pest or weed control at 80 g/ha (POLCO; Fallopia convolvulus, 504 h, dosage 80 g/ha) was 90%. For the same compound, the pest or weed control at 20 g/ha (SETVI [7]; Setaria viridis, 504 h, dosage 20 g/ha) was 80%, the pest or weed control at 80 g/ha (SETVI [7]; Setaria viridis, 504 h, dosage 80 g/ha) was 100% and the pest or weed control at 80 g/ha (VERPE [8]; Veronica persica, 504 h) was 90%. It also gave a pest or weed control at 20 g/ha (VIOTR [9]; Viola tricolor, 504 h, dosage 20 g/ha) of 100%, a pest or weed control at 80 g/ha (VIOTR [9]; Viola tricolor, 504 h, dosage 80 g/ha) of 100% and a pest or weed control at 20 g/ha (DIGSA [18]; dosage 20 g/ha) of 90%. The pest or weed control at 80 g/ha (DIGSA [18]; dosage 80 g/ha) was 100%, the pest or weed control at 20 g/ha (ABUTH [10]; Abutilon theophrasti, 504 h, dosage 20 g/ha) was 80% and the pest or weed control at 20 g/ha (AMARE [12]; Amaranthus retroflexus, 504 h) was 100%. For the same compound, the pest or weed control at 20 g/ha (ECHCG [13]; Echinochloa crus-galli, 504 h) was 90%, the pest or weed control at 20 g/ha (MATIN [14]; Tripleurospermum inodorum, 504 h) was 80% and the pest or weed control at 20 g/ha (VERPE [19]) was 90%. For the same compound, the pest or weed control at 5 g/ha (VIOTR [17]; Viola tricolor, 504 h, 5 g/ha) was 80%, the pest or weed control at 20 g/ha (VIOTR [17]; Viola tricolor, 504 h, 20 g/ha) was 90% and the pest or weed control at 5 g/ha (DIGSA [20]; 5 g/ha) was 90%. For the same compound, the pest or weed control at 20 g/ha (DIGSA [20]; 20 g/ha) was 90%.
